Data on twelve compounds can be found in PubChem BioAssay (NCI).

Structures are written as SMILES.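 Protocol summary: plate cells (96-well), add compound at 5 concentrations, incubate 48 h, interpolate endpoints linearly. At the TGI there is no net growth.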

Test systems include ACHN renal; BT-549 breast; HCT-15 colon; HT29 colon; K-562 leukemia; MCF7 breast; MDA-MB-435; MOLT-4 leukemia; NCI-H522 lung; OVCAR-8 ovarian; SK-OV-3 ovarian; SN12C renal; SNB-75 CNS; SW-620 colon; T-47D breast; TK-10 renal.
Common to all, as to assay: DTP human tumour cell line panel, 48 h

For `CNc1nc2n(CCO)c(-c3ccccc3)c(-c3ccccc3)nc-2c(=O)n1`, the TGI in the experiment on ACHN renal, with BT-549 breast, with HCT-15 colon, with HT29 colon, in the experiment on K-562 leukemia and with MCF7 breast was > 50 µM in each case. In addition, the TGI in the experiment with MDA-MB-435, with MOLT-4 leukemia, in the experiment with NCI-H522 lung, with OVCAR-8 ovarian, in the experiment on SK-OV-3 ovarian and in the experiment on SN12C renal was > 50 µM throughout. Besides, the TGI in the experiment on SNB-75 CNS, in the experiment on SW-620 colon, in the experiment on T-47D breast and with TK-10 renal was > 50 µM each time.

With `COc1cc(OC)c2c(=O)c(OC)c(-c3ccc4c(c3)OCO4)oc2c1`, the TGI in the experiment with ACHN renal, in the experiment on BT-549 breast, in the experiment on HCT-15 colon, in the experiment with HT29 colon, with K-562 leukemia and in the experiment on MCF7 breast was > 100 µM each time. For the same compound, the TGI – broadly, the concentration giving total growth inhibition – was > 100 µM in the experiment on MDA-MB-435; > 100 µM in the experiment with MOLT-4 leukemia; 92.3 µM with NCI-H522 lung; > 100 µM with OVCAR-8 ovarian; 71.7 µM with SK-OV-3 ovarian; > 100 µM with SN12C renal. Also, the TGI is 33.5 µM in the experiment with SNB-75 CNS, > 100 µM in the experiment on SW-620 colon, > 100 µM in the experiment with T-47D breast and > 100 µM with TK-10 renal.

For `Cc1cc(=O)n2nc(CN3CCCCC3)sc2n1`, the TGI in the experiment with ACHN renal, with BT-549 breast, in the experiment with HCT-15 colon, in the experiment on HT29 colon, in the experiment on K-562 leukemia and in the experiment with MCF7 breast was > 100 µM in each case. In addition, the TGI with MDA-MB-435, in the experiment on MOLT-4 leukemia, with NCI-H522 lung, with OVCAR-8 ovarian, in the experiment with SK-OV-3 ovarian and in the experiment with SN12C renal was > 100 µM in each case. The TGI with SNB-75 CNS, with SW-620 colon, in the experiment with T-47D breast and with TK-10 renal was > 100 µM throughout.

For the compound `CC1ON2CCCC2[C@H]1C(=O)N1C2CC3CCC2(CS1(=O)=O)C3(C)C` (some centres not stated), the TGI with ACHN renal, with BT-549 breast, in the experiment with HCT-15 colon, in the experiment on HT29 colon, in the experiment with K-562 leukemia and with MCF7 breast was > 100 µM in each case. In addition, the TGI in the experiment with MDA-MB-435, in the experiment with MOLT-4 leukemia, with NCI-H522 lung, in the experiment on OVCAR-8 ovarian, in the experiment on SK-OV-3 ovarian and with SN12C renal was > 100 µM throughout. The TGI with SNB-75 CNS, in the experiment with SW-620 colon, with T-47D breast and in the experiment with TK-10 renal was > 100 µM in each case.

For the compound `Cc1ccc(NC(=S)N/N=C(/c2ccccc2)c2ccccn2)cc1`, the TGI in the experiment on ACHN renal amounted to 10.3 µM; with BT-549 breast, 19.1 µM; in the experiment on HCT-15 colon, 15.6 µM; with HT29 colon, 20.3 µM; in the experiment with K-562 leukemia it was 4.61 µM; with MCF7 breast it was 15.7 µM. The TGI in the experiment on MDA-MB-435 is 14.7 µM; with MOLT-4 leukemia, > 12.3 µM; in the experiment on NCI-H522 lung it was 24.4 µM; with OVCAR-8 ovarian, 14 µM; with SK-OV-3 ovarian, 9.29 µM; in the experiment on SN12C renal, 10.1 µM. In addition, the TGI in the experiment with SNB-75 CNS came out at 5.16 µM; in the experiment on SW-620 colon, 20.9 µM; in the experiment on T-47D breast it was 12.6 µM; with TK-10 renal it was 2.44 µM.

Consider `CN(C)/C=N/S(=O)(=O)c1nn2c(C=O)c(-c3ccc(Cl)cc3)nc2s1`, for which the TGI amounted to 2.36 µM in the experiment on ACHN renal; 2.83 µM in the experiment with BT-549 breast; 5.63 µM in the experiment with HCT-15 colon; 0.552 µM in the experiment on HT29 colon; 3.04 µM with K-562 leukemia; 2.68 µM in the experiment with MCF7 breast. Further, the TGI in the experiment on MDA-MB-435 amounted to 7.92 µM; in the experiment with MOLT-4 leukemia, 2.68 µM; with NCI-H522 lung it was 2.12 µM; in the experiment with OVCAR-8 ovarian it was 3.2 µM; with SK-OV-3 ovarian, 29.5 µM; in the experiment with SN12C renal, 5.94 µM. The TGI with SNB-75 CNS was determined as 24.3 µM; with SW-620 colon, 1.52 µM; in the experiment with T-47D breast, 3.36 µM; with TK-10 renal it was 2.88 µM.

`C=C1CC[C@H](O)C(C)(C)[C@@H]1CC/C(C)=C/CC/C=C(\C)CC/C=C(\C)CCC=C(C)C`: the TGI in the experiment on ACHN renal, with BT-549 breast, in the experiment with HCT-15 colon, in the experiment with HT29 colon, in the experiment with K-562 leukemia and in the experiment with MCF7 breast was > 100 µM throughout. The TGI in the experiment with MDA-MB-435, in the experiment on MOLT-4 leukemia, in the experiment on NCI-H522 lung, in the experiment with OVCAR-8 ovarian, in the experiment with SK-OV-3 ovarian and with SN12C renal was > 100 µM each time. For the same compound, the TGI is > 100 µM in the experiment on SNB-75 CNS, > 100 µM in the experiment with SW-620 colon, 59.3 µM in the experiment with T-47D breast and > 100 µM in the experiment with TK-10 renal.

In the case of `O=C(O)[C@@H]1CSCN1C(=O)[C@@H]1CCC(=S)N1`, the TGI in the experiment with ACHN renal, in the experiment with BT-549 breast, in the experiment on HCT-15 colon, in the experiment on HT29 colon, in the experiment with K-562 leukemia and in the experiment with MCF7 breast was > 100 µM each time. For the same compound, the TGI in the experiment with MDA-MB-435, with MOLT-4 leukemia, in the experiment on NCI-H522 lung, in the experiment on OVCAR-8 ovarian, with SK-OV-3 ovarian and in the experiment with SN12C renal was > 100 µM in each case. Besides, the TGI in the experiment with SNB-75 CNS, in the experiment on SW-620 colon, in the experiment on T-47D breast and in the experiment with TK-10 renal was > 100 µM in each case.

Consider `NC(CCC(=O)O)C(=O)N1CCN(c2nc(N3CCCC3)c3nc(Cl)c(NCc4ccccc4)nc3n2)CC1` (configuration not stated), for which the TGI in the experiment on ACHN renal was 28.8 µM; in the experiment on BT-549 breast, 25.4 µM; in the experiment with HCT-15 colon, 31 µM; in the experiment with HT29 colon it was 25.5 µM; in the experiment with K-562 leukemia, 35.7 µM; in the experiment on MCF7 breast, 25.6 µM. The TGI in the experiment on MDA-MB-435 is 26.2 µM; in the experiment on MOLT-4 leukemia it was 24.7 µM; with NCI-H522 lung, 34.5 µM; with OVCAR-8 ovarian it was 38.6 µM; in the experiment with SK-OV-3 ovarian it was 32.9 µM; in the experiment with SN12C renal, 30.7 µM. In addition, the TGI was found to be 25.3 µM with SNB-75 CNS, 51.3 µM in the experiment on SW-620 colon, 21.3 µM with T-47D breast and 31 µM in the experiment with TK-10 renal.

With `CC(C)(C)C1=CC(=C(c2ccc(-c3c4nc(c(-c5ccc(C(=C6C=C(C(C)(C)C)C(=O)C(C(C)(C)C)=C6)c6cc(C(C)(C)C)c(O)c(C(C)(C)C)c6)cc5)c5ccc([nH]5)c(-c5ccc(C(=C6C=C(C(C)(C)C)C(=O)C(C(C)(C)C)=C6)c6cc(C(C)(C)C)c(O)c(C(C)(C)C)c6)cc5)c5nc(c(-c6ccc(C(=C7C=C(C(C)(C)C)C(=O)C(C(C)(C)C)=C7)c7cc(C(C)(C)C)c(O)c(C(C)(C)C)c7)cc6)c6ccc3[nH]6)C=C5)C=C4)cc2)c2cc(C(C)(C)C)c(O)c(C(C)(C)C)c2)C=C(C(C)(C)C)C1=O`, the TGI with ACHN renal, in the experiment on BT-549 breast, in the experiment on HCT-15 colon, in the experiment on HT29 colon, with K-562 leukemia and in the experiment on MCF7 breast was > 100 µM each time. Moreover, the TGI in the experiment on MDA-MB-435, in the experiment with MOLT-4 leukemia, in the experiment on NCI-H522 lung, with OVCAR-8 ovarian, in the experiment with SK-OV-3 ovarian and with SN12C renal was > 100 µM in each case. For the same compound, the TGI with SNB-75 CNS, in the experiment on SW-620 colon, with T-47D breast and in the experiment with TK-10 renal was > 100 µM each time.

Regarding `O=C(O)Cc1cccc2c1OC(c1ccccc1)C(Cl)(C(=O)c1ccccc1)C2=O` (configuration not stated), the TGI in the experiment with ACHN renal is 26.9 µM; in the experiment with BT-549 breast, > 100 µM; in the experiment with HCT-15 colon, 28.8 µM; with HT29 colon, 30 µM; in the experiment on K-562 leukemia it was 22.6 µM; with MCF7 breast it was 24.5 µM. The TGI is 30.6 µM in the experiment with MDA-MB-435; 62.3 µM in the experiment on MOLT-4 leukemia; 29.6 µM with NCI-H522 lung; 65.2 µM in the experiment with OVCAR-8 ovarian; > 100 µM in the experiment on SK-OV-3 ovarian; 26.2 µM in the experiment on SN12C renal. The TGI with SNB-75 CNS was 40.9 µM; in the experiment with SW-620 colon, 21.2 µM; with T-47D breast, 40.2 µM; with TK-10 renal it was 37.2 µM.

Turning to `COc1ccccc1N1CCN(CCCN2/C(=C(\O)c3ccccc3)C(=O)c3c(C)cc(C)nc3S2(=O)=O)CC1`, the TGI in the experiment with ACHN renal, in the experiment on BT-549 breast, in the experiment with HCT-15 colon, with HT29 colon, with K-562 leukemia and in the experiment with MCF7 breast was > 100 µM each time. Moreover, the concentration for total growth inhibition (TGI) in the experiment with MDA-MB-435, in the experiment with MOLT-4 leukemia, with NCI-H522 lung, with OVCAR-8 ovarian, with SK-OV-3 ovarian and in the experiment on SN12C renal was > 100 µM throughout. The TGI with SNB-75 CNS was 30.8 µM; in the experiment with SW-620 colon it was > 100 µM; in the experiment on T-47D breast, > 100 µM; in the experiment with TK-10 renal, > 100 µM.
